Experimental data: patent US20250018047A1, “METHODS AND COMPOSITIONS FOR TARGETED PROTEIN DEGRADATION” (Ranok Therapeutics (Hangzhou) Co. Ltd., priority 2021, published 2025)
Structures can show the parent of a compound that is named as a salt.

What was measured:
KRAS(G12D)/SOS1 = target: T1, KRAS(G12D)/SOS1 (Homo sapiens, UniProt P01116, G12D); assay: KRAS(G12D)/SOS1 homogeneous time-resolved fluorescence (HTRF) assay; assay type: binding; settings: absence of GTP, 4° C. for 3 hr
T1 construct: purchased Cisbio 63ADK000CB16PEG
Procedure: The test compound was mixed and incubated with reaction components, incubated in a sealed plate at 4° C. for 3 hr and fluorescence was measured using a PerkinElmer Envision plate reader.

[1] = test system: AsPC-1 human pancreatic adenocarcinoma; assay: CellTiter-Glo cancer cell line proliferation assay, AsPC-1; assay type: cell-based; settings: Homo sapiens, ASPC1, 24 hr
In short: (§1)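 Cells plated at 4,000/well, grown 24 h at 37 °C/5% CO2, then exposed to compound concentration series (0.5% DMSO final) for 24 h. Viability read by CellTiter-Glo luminescence; IC50 values calculated.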

[2] = target: BA/F3-KRAS(G12D) murine pro-B cell line stably expressing KRAS(G12D) (Homo sapiens, UniProt P01116, G12D, cells depend on it); assay: CellTiter-Glo cancer cell line proliferation assay, BA/F3-KRAS(G12D); assay type: cell-based; settings: 24 hr, read-out: BAF3 at 24 hrs, IC50
In short: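 BA/F3 cells expressing KRAS(G12D), 4,000/well in RPMI 1640 + 10% FCS, exposed 24 h at 37 °C to 3-fold dilutions (20 μM to 1.02 nM, 0.5% DMSO). Viability by CellTiter-Glo luminescence; IC50 calculated from the dose-response.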

[3] = test system: A-427 human lung carcinoma; assay: CellTiter-Glo cancer cell line proliferation assay, A-427; assay type: cell-based; settings: Homo sapiens, A-427, 24 hr, read-out: A427 at 24 hrs, IC50
In short: as §1

T1 sequence (P01116 1-188 isoform P01116-2 G12D): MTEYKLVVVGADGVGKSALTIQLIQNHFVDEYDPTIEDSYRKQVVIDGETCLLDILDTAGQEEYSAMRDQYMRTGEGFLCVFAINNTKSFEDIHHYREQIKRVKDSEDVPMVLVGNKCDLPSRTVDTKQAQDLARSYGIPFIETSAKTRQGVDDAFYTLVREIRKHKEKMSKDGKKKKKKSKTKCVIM
Chain of BA/F3-KRAS(G12D) murine pro-B cell line stably expressing KRAS(G12D) (P01116 whole entry G12D): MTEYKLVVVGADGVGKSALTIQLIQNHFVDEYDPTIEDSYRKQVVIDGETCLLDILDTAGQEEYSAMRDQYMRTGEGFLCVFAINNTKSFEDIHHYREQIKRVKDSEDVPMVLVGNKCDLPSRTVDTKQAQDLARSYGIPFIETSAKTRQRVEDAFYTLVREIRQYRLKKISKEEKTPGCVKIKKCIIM

SMILES	IC50 (KRAS(G12D)/SOS1)	IC50 [1]	GI50 [2]	IC50 [3]
Cc1ncsc1-c1ccc(CNC(=O)[C@@H]2C[C@@H](O)CN2C(=O)[C@@H](NC(=O)CCCNC(=O)C2CCN([C@H]3C[C@@H](COc4nc(N5CC6CCC(C5)N6)c5cnc(-c6cccc7cccc(Cl)c67)c(F)c5n4)N(C)C3)CC2)C(C)(C)C)cc1 [Compound 26, 1-((3S,5S)-5-(((4-(3,8-diazabicyclo[3.2.1]octan-3-yl)-7-(8-chloronaphthalen-1-yl)-8-fluoropyrido[4,3-d]pyrimidin-2-yl)oxy)methyl)-1-methylpyrrolidin-3-yl)-N-(4-(((S)-1-((2S,4R)-4-hydroxy-2-((4-(4-methylthiazol-5-yl)benzyl)carbamoyl)pyrrolidin-1-yl)-3,3-dimethyl-1-oxobutan-2-yl)amino)-4-oxobutyl)piperidine-4-carboxamide]	< 100 nM	> 1000 nM	> 1000 nM	> 1000 nM
Cc1ncsc1-c1ccc(CNC(=O)[C@@H]2C[C@@H](O)CN2C(=O)[C@@H](NC(=O)CCNC(=O)C2CCN([C@H]3C[C@@H](COc4nc(N5CC6CCC(C5)N6)c5cnc(-c6cccc7cccc(Cl)c67)c(F)c5n4)N(C)C3)CC2)C(C)(C)C)cc1 [Compound 27, 1-((3S,5S)-5-(((4-(3,8-diazabicyclo[3.2.1]octan-3-yl)-7-(8-chloronaphthalen-1-yl)-8-fluoropyrido[4,3-d]pyrimidin-2-yl)oxy)methyl)-1-methylpyrrolidin-3-yl)-N-(3-(((S)-1-((2S,4R)-4-hydroxy-2-((4-(4-methylthiazol-5-yl)benzyl)carbamoyl)pyrrolidin-1-yl)-3,3-dimethyl-1-oxobutan-2-yl)amino)-3-oxopropyl)piperidine-4-carboxamide formate]	100 to 1000 nM	> 1000 nM	> 1000 nM	> 1000 nM
C#Cc1cccc2cccc(-c3ncc4c(N5CC6CCC(C5)N6)nc(OCC5(CN6CCN(Cc7ccc8c(c7)C(=O)N(C7CCC(=O)NC7=O)C8=O)CC6)CC5)nc4c3F)c12 (stereo not drawn) [Compound 28, 5-((4-((1-(((4-(3,8-diazabicyclo[3.2.1]octan-3-yl)-7-(8-ethynylnaphthalen-1-yl)-8-fluoropyrido[4,3-d]pyrimidin-2-yl)oxy)methyl)cyclopropyl)methyl)piperazin-1-yl)methyl)-2-(2,6-dioxopiperidin-3-yl)isoindoline-1,3-dione formate]	< 100 nM	> 1000 nM	> 1000 nM	> 1000 nM
C#Cc1cccc2cccc(-c3ncc4c(N5CC6CCC(C5)N6)nc(OCC5(CN6CCN(CC7CCN(c8cccc9c8C(=O)N(C8CCC(=O)NC8=O)C9=O)CC7)CC6)CC5)nc4c3F)c12 (stereo not drawn) [Compound 29, 4-(4-((4-((1-(((4-(3,8-diazabicyclo[3.2.1]octan-3-yl)-7-(8-ethynylnaphthalen-1-yl)-8-fluoropyrido[4,3-d]pyrimidin-2-yl)oxy)methyl)cyclopropyl)methyl)piperazin-1-yl)methyl)piperidin-1-yl)-2-(2,6-dioxopiperidin-3-yl)isoindoline-1,3-dione formate]	< 100 nM	> 1000 nM	100 to 1000 nM	> 1000 nM
C#Cc1cccc2cccc(-c3ncc4c(N5CC6CCC(C5)N6)nc(OCC5(CN6CCN(C(=O)C7CCN(c8ccc9c(c8)C(=O)N(C8CCC(=O)NC8=O)C9=O)CC7)CC6)CC5)nc4c3F)c12 (stereo not drawn) [Compound 30, 5-(4-(4-((1-(((4-(3,8-diazabicyclo[3.2.1]octan-3-yl)-7-(8-ethynylnaphthalen-1-yl)-8-fluoropyrido[4,3-d]pyrimidin-2-yl)oxy)methyl)cyclopropyl)methyl)piperazine-1-carbonyl)piperidin-1-yl)-2-(2,6-dioxopiperidin-3-yl)isoindoline-1,3-dione formate]	< 100 nM	> 1000 nM	> 1000 nM	> 1000 nM
C#Cc1cccc2cccc(-c3ncc4c(N5CC6CCC(C5)N6)nc(OCC5(CN6CCN(Cc7ccc8c(c7)CN(C7CCC(=O)NC7=O)C8=O)CC6)CC5)nc4c3F)c12 (stereo not drawn) [Compound 31, 3-(5-((4-((1-(((4-(3,8-diazabicyclo[3.2.1]octan-3-yl)-7-(8-ethynylnaphthalen-1-yl)-8-fluoropyrido[4,3-d]pyrimidin-2-yl)oxy)methyl)cyclopropyl)methyl)piperazin-1-yl)methyl)-1-oxoisoindolin-2-yl)piperidine-2,6-dione formate]	< 100 nM	> 1000 nM	> 1000 nM	> 1000 nM
